From US5837852A, “Capped nucleic acid oligomers that inhibit cap-dependent transcription of the influenza virus endonuclease” (priority 1993, dated 1998)
Entries after “also recorded” stand apart in the source; their conditions may differ. {m7Gppp} = cap: 7-methylguanosine joined 5'-5' by triphosphate; m = 2'-O-methyl; r = 2'-OH (RNA); {P} = phosphate

Tests used:
viral cores = details: glycerol gradients, reference 3; cited from earlier work
[1] = system: influenza virus endonuclease (viral polymerase in viral cores); assay: Viral endonuclease cleavage reaction of capped RNA substrates with viral cores; type: biochemical, Influenza A/PR/8 virus (H1N1); details: for endonucleolytic cleavage by viral cores (in words): absence of nucleotide triphosphates; for dephosphorylation of the 3' phosphate by the viral polymerase (in words): 3'-phosphate terminated fragments with viral cores
[2] = system: viral polymerase (viral cores); assay: Elongation (priming of transcription) of capped RNA fragments by viral cores with NTPs; type: biochemical, Influenza A/PR/8 virus (H1N1); details: with NTPs (ATP, CTP, GTP)

| Substance | endonucleolytic cleavage by viral cores (in words) [1] | elongation / priming of transcription by viral cores (in words) [2] | other results |
| --- | --- | --- | --- |
| m^7 GpppGm |  |  | co-sedimentation with viral cores (viral cores): did not |
| m^7 GpppGmAAUACU | neither cleaved | nor were they able to prime transcription |  |
| m^7 GpppGmAAUACUC | neither cleaved | nor were they able to prime transcription |  |
| m^7 GpppGmAAUACUCA |  |  | elongation / priming of transcription by viral cores (in words) ([2]; listed as A9-OH): inefficiently elongated; also recorded: appeared to promote an abortive elongation product or primed transcription very inefficiently |
| m^7 GpppGmAAUACUCAA (GAAUACUCAA; sugars from the 5' end m1 r9, 5' {m7Gppp}, backbone not given here) [ID; NO] |  | directly primed elongation |  |
| m^7 GpppGmAAUACUCAAG-OH (GAAUACUCAAG; sugars from the 5' end m1 r10, 5' {m7Gppp}, backbone not given here) [ID; NO; 5, capped 11-nucleotide cleavage product] | did not result in further cleavage |  | elongation / priming of transcription by viral cores (in words) ([2]; listed as G11-OH): could function as a primer for viral transcription; also recorded: able to prime with an efficiency similar to that obtained with the full-length substrate |
| m^7 GpppGmAAUACUCAAGC (GAAUACUCAAGC; sugars from the 5' end m1 r11, 5' {m7Gppp}, backbone not given here) [ID; NO] | a minor amount of secondary cleavage to a putative A9-OH fragment occurred | appeared to prime transcription without cleavage |  |
| m^7 GpppGmAAUACUCAAGCUp (GAAUACUCAAGCU; sugars from the 5' end m1 r12, 5' {m7Gppp}, 3' {P}, backbone not given here) [ID; NO] | cleaved in the absence of ribonucleotides to an 11 base primer | normal elongation is observed |  |
| m^7 GpppGmAAUACUCAAGCp (GAAUACUCAAGC; sugars from the 5' end m1 r11, 5' {m7Gppp}, 3' {P}, backbone not given here) [ID; NO] | little cleavage of the C12-P fragment to the G11-OH fragment occurred | A small amount of elongation was observed | dephosphorylation of the 3' phosphate by the viral polymerase (in words) [1]: little if any dephosphorylation |
| m^7 GpppGmAAUACUCAAGGp | cleavage to an 11-base primer resulted |  |  |
| m^7 GpppGmAAUACUCAAGp (GAAUACUCAAG; sugars from the 5' end m1 r10, 5' {m7Gppp}, 3' {P}, backbone not given here) [ID; NO] | A minor amount of G11-P fragment was cleaved to the A9-OH fragment | little elongation | dephosphorylation of the 3' phosphate by the viral polymerase (in words) [1]: essentially no cleavage of the 3' phosphate; also recorded: little if any dephosphorylation; dephosphorylation of the 3' phosphate by the viral polymerase (in words) ([1]; listed as G11-p): not converted to the G11-OH fragment; elongation / priming of transcription by viral cores (in words) ([2]; listed as G11-p): unable to efficiently prime transcription |
| m^7 GpppGmAAUACUCAAp (GAAUACUCAA; sugars from the 5' end m1 r9, 5' {m7Gppp}, 3' {P}, backbone not given here) [ID; NO] |  | little elongation | dephosphorylation of the 3' phosphate by the viral polymerase (in words) [1]: essentially no cleavage of the 3' phosphate; also recorded: little if any dephosphorylation |
| m^7 GpppGmUUUUUAp |  |  | co-sedimentation with viral cores (viral cores): co-sedimented efficiently |
| m^7 GpppGmUp |  |  | co-sedimentation with viral cores (viral cores): did not |
